Experimental data: publication PMC4193777 (PLoS ONE, 2014)

Assays:
FPR2 = assay: Calcium mobilization in undifferentiated HL-60 cells overexpressing FPR2; assay type: cell-based; conditions: Fura-2; F2Pal10 10 nM
From the text: The procedures used to obtain stable expression of FPR1 and FPR2 in undifferentiated HL-60 cells have been previously described. To prevent possible auto-differentiation due to the accumulation of differentiation factors in the culture medium, cells were passed twice a week before they reached a density of 2×10^6 cells/ml. At each passage, an aliquot of the cell culture was centrifuged, the supernatant was discarded and the cell pellet was resuspended in fresh RPMI 1640 medium containing FCS (10%), PEST (1%), and G418 (1 mg/ml).
Neutrophils or transfected HL-60 cells at a density of 5×10^7 cells/ml in KRG containing 0.1% BSA were loaded with 5 µM FURA 2-AM for 30 minutes in the dark at room temperature. […] Calcium measurements were carried out in a PerkinElmer fluorescence spectrophotometer (LC50), with excitation wavelengths of 340 nm and 380 nm, an emission wavelength of 509 nm, and slit widths of 5 nm and 10 nm, respectively. The transient rise in intracellular calcium is presented as the ratio of fluorescence intensities (340 nm: 380 nm) detected. […] The relative calcium level was expressed as a ratio between Fluo-3 and Fura Red (FL-1/FL-3) fluorescence over time.
Figure 1 The F2Pal10 pepducin specifically activates FPR2. […] The release of superoxide anions was recorded continuously. […] Abscissa, time of study (sec); ordinate, fluorescence (arbitrary units).

desensitized FPR2 = assay: PAF-induced cross-talk reactivation of desensitized FPR2 (superoxide); assay type: cell-based, human
Procedure: Human peripheral blood neutrophils were isolated from buffy coats from healthy blood donors using dextran sedimentation and Ficoll-Paque gradient centrifugation as described. The remaining erythrocytes were disrupted by hypotonic lysis, the neutrophils were washed twice, resuspended in KRG, and stored on melting ice until use. This isolation procedure permits cells to be purified with minimal granule mobilization.
The NADPH-oxidase activity was determined using isoluminol-enhanced chemiluminescence (CL), [27]. The CL activity was measured in a six-channel Biolumat LB 9505 (Berthold Co., Wildbad, Germany), using disposable 4-ml polypropylene tubes with a 900 µl reaction mixture containing 10^5 cells, isoluminol (2×10^−5 M) and HRP (2 U). The tubes were equilibrated in the Biolumat for 5 min at 37°C, after which the stimulus (100 µl) was added and the light emission was recorded continuously. Receptor desensitized cells were defined as naïve (non-desensitized) cells that had first been stimulated with a receptor specific agonist and returned to baseline after the resulting release of superoxide before a second stimulation. When reactivation experiments were performed with antagonists, the antagonists were added to the CL reaction mixture 1 min before the second stimulation. For studies with signaling inhibitors, cells were incubated with inhibitors at 37°C for 15 min before agonist addition. Control cells received no treatment but were incubated under the same conditions.
Figure 3 PAF- or ATP-stimulation induces reactivation of desensitized FPR2. […] A representative experiment is shown and the time point for addition of FPR2 agonists is indicated by the first arrow, the time point for PAF stimulation (100 nM final concentration) with the second arrow. The control PAF response induced in naïve (non-desensitized) neutrophils is shown for comparison (dotted line). Abscissa: Time of study (min); ordinate: Superoxide production (Mcpm). B. Naïve neutrophils were first desensitized with F2Pal10 (F2Pal10des., 500 nM final concentration) and subsequently stimulated with PAF (100 nM final concentration; time point for PAF addition is indicated by an arrow). The FPR2 specific inhibitor PBP10 (1 µM) was added 1 min prior to PAF stimulation (dashed line) and the release of superoxide anions was recorded continuously. The PAF responses induced in naïve cells (solid line), as well as in F2Pal10-desensitized cells receiving no PBP10 (dotted line), are shown for comparison. Abscissa: Time of study (min); ordinate: Superoxide production (Mcpm). C. Effect of calyculin A on receptor cross-talk induced FPR2 reactivation. Cells desensitized with F2Pal10 (F2Pal10des.) were incubated with the phosphatase inhibitor calyculin A (60 nM; solid line) or buffer as control (dashed line) for 10 min at 37°C prior to PAF stimulation (100 nM). The release of superoxide anions was recorded continuously. Abscissa: Time of study (min); ordinate: Superoxide production (Mcpm). […] Abscissa: Time of study (min); ordinate: Superoxide production (Mcpm). […] The results are given as peak values of superoxide production following addition of ATPγS (mean+SEM; n = 3).
Figure 4 More pronounced reactivation was induced by PAF in neutrophils desensitized by the pepducin F2Pal10. […] The results are given as peak values of superoxide production from three separate experiments for the first stimulation with FPR2 agonists (mean+SEM, n = 3). […]

## CSCC[C@H](NC(=O)[C@@H](NC(=O)[C@H](CCSC)NC(=O)[C@H](Cc1ccc(O)cc1)NC(=O)[C@H](CCCCN)NC(=O)[C@@H](N)Cc1c[nH]c2ccccc12)C(C)C)C(N)=O [WKYMVM]
FPR2
  intracellular calcium response, FPR2 HL-60 cells: time course of the response was very similar
Desensitized FPR2; PAF- and ATP-induced cross-talk reactivation of desensitized FPR2
  type of agonism, cross-talk reactivation: partial agonist
Desensitized FPR2; desensitizing agent F2Pal10 500 nM or WKYMVM 40 nM, PAF 100 nM
  priming of PAF response in desensitized neutrophils: primed in their response to PAF
